In PMC3932137, “Simple, sensitive and rapid determination of linifanib (ABT-869), a novel tyrosine kinase inhibitor in rat plasma by UHPLC-MS/MS” (Chemistry Central Journal, 2014):

Assays:
[1] = stability of stock solutions and working solutions; assay type: physicochemical; conditions: for time stock solutions and working standard stable at refrigerator temperature: refrigerator temperature (below 10°C)
Protocol: (§1) The stability of linifanib in rat plasma during the sample storage and processing conditions was assessed by analyzing six replicates of LQC and HQC. Short-term stability was assessed after keeping the plasma samples at ambient temperature for ∼ 6 h, the freeze–thaw stability was determined after three cycles of freeze-thaw. Post-preparative stability was determined by storing the reconstituted QC samples for ∼ 48 h under autosampler conditions (maintained at 10°C) before being analyzed. Long-term stability was assessed after storage of the test samples at around −80°C for 30 days. The working solutions and stock solutions of linifanib and the IS were also evaluated for stability at room temperature for 12 h and at refrigerator temperature (below 10°C) for 15 days. The samples were considered stable in plasma at each concentration if the deviation from the mean calculated concentration of quality control samples were within ±15%.

[2] = parameters: method as in PMID 22382879, PMID 19720910; conditions: phase I study, cited from earlier work
[3] = pilot pharmacokinetic study of linifanib in rats (oral); assay type: in vivo; conditions: male, Wistar albino, plasma, rat, 5 mg/kg oral, single dose
Protocol: After an overnight fasting, all rats received linifanib (5 mg/kg, oral, dissolved in HPMC). Blood samples (approximately 0.5 mL) were collected from the retro-orbital plexus into heparinized microfuge tubes at different time interval after linifanib administration and plasma samples were harvested by centrifuging the blood at 4500 rpm for 8 min and stored frozen at −80 ± 10°C until analysis. The pharmacokinetic parameters: Cmax, Tmax, AUC, t½ and Kel were calculated using WinNonlin software.

[4] = stability of linifanib in rat plasma during sample storage and processing; assay type: in vitro ADME; conditions: for Accuracy (%) / Mean ± SD concentration found: n = 6
Protocol: as §1

[5] = rat plasma, 30 days at −80°C, nominal 1.28 ng/mL
[6] = rat plasma, 30 days at −80°C, nominal 425 ng/mL
[7] = rat plasma, bench top (6 hrs), nominal 1.28 ng/mL
[8] = rat plasma, bench top (6 hrs), nominal 425 ng/mL
[9] = rat plasma, freeze thaw (3 cycle), nominal 1.28 ng/mL
[10] = rat plasma, freeze thaw (3 cycle), nominal 425 ng/mL
[11] = reconstituted QC samples in injector (48 hrs, 10°C), nominal 1.28 ng/mL
[12] = reconstituted QC samples in injector (48 hrs, 10°C), nominal 425 ng/mL

With `CCN(CC)CCNC(=O)c1c(C)[nH]c(/C=C2\C(=O)Nc3ccc(F)cc32)c1C` [IS, sunitinib] the “time stock solutions and working standard stable at refrigerator temperature” value [1] was 15 days and the “time stock solutions and working standard stable at room temperature” value [1] was 12 h.
For `Cc1ccc(F)c(NC(=O)Nc2ccc(-c3cccc4[nH]nc(N)c34)cc2)c1` [linifanib, N-(4-(3-amino-1H-indazol-4-yl)phenyl)-N'-(2-fluoro-5-methylphenyl)urea], the “time stock solutions and working standard stable at refrigerator temperature” value [1] is given as 15 days, the “time stock solutions and working standard stable at room temperature” value [1] is given as 12 h and the “time to peak plasma concentration” value ([2]; across all dose levels) is given as “approx. 2 h”. For the same compound, the “dose recovered as unchanged in urine” value [2] was 15%, the oral clearance [2] was 2.7 L/h and the “pharmacokinetics (dose and time dependence)” value [2] was “dose proportional and time invariant”. The k el [3] was 2.78e-05 s⁻¹, the half-life ([3]; read-out: average t½ (converted)) was 6.67 h and the AUC(0-t) ([3]; read-out: mean AUC0-8h) was 232 ng·h/mL. The Cmax ([3]; read-out: mean peak plasma concentration (Cmax)) was 55.1 ng/mL, the Tmax ([3]; read-out: time to peak plasma concentration (Tmax)) was 2.5 h and the “time stable in autosampler” value ([4]; autosampler maintained at 10°C) was 48 h. For the same compound, the “Accuracy (%)” value [4, 5] was 98.3%, the “Mean ± SD concentration found” value [4, 5] was 1.26 ± 0.10 ng/mL and the “Accuracy (%)” value [4, 6] was 90.5%. The “Mean ± SD concentration found” value [4, 6] was 384 ± 20.2 ng/mL, the “Accuracy (%)” value [4, 7] was 105.0% and the “Mean ± SD concentration found” value [4, 7] was 1.35 ± 0.06 ng/mL. For the same compound, the “Accuracy (%)” value [4, 8] was 92.7%, the “Mean ± SD concentration found” value [4, 8] was 393 ± 34.8 ng/mL and the “Accuracy (%)” value [4, 9] was 101.1%. For the same compound, the “Mean ± SD concentration found” value [4, 9] was 1.30 ± 0.10 ng/mL, the “Accuracy (%)” value [4, 10] was 90.7% and the “Mean ± SD concentration found” value [4, 10] was 385 ± 14.3 ng/mL. For the same compound, the “Accuracy (%)” value [4, 11] was 110.6%, the “Mean ± SD concentration found” value [4, 11] was 1.42 ± 0.09 ng/mL and the “Accuracy (%)” value [4, 12] was 107.2%. For the same compound, the “Mean ± SD concentration found” value [4, 12] was 455 ± 19.8 ng/mL, the “time stable in rat plasma at around −80°C” value ([4]; spiked into rat plasma, around −80°C) was “up to 30 days” and the “time stable in rat plasma at room temperature” value ([4]; spiked into rat plasma, room temperature) was “at least 6.0 h”. The “freeze-thaw stability in rat plasma” value ([4]; spiked into rat plasma, three freeze-thaw cycle) was “stable”.
